# Test results from patent US12303591B2, “Tumescent infiltration drug delivery of high subcutaneous drug concentrations with prolonged local and systemic effects and minimal local or systemic toxicity” (priority 2015, dated 2025).
# Several values for one entry are separate records, joined by “and”; a condition that tells them apart may be missing. Identical values can stand only once. Like-named read-outs stand apart in the source and are kept apart here.
# Key:
# [1] = IVAD 500 mg; abdominal wall surgery; cited from earlier work
# [2] = human, in vivo
# [3] = Adverse effects / tissue toxicity after subcutaneous tumescent infiltration (TAD trial)
# Text: At the time when each sample of TISF was obtained, patients were examined and questioned about signs and symptoms of subcutaneous tissue toxicity including unusual soreness, tenderness, discoloration, swelling at sites of subcutaneous tumescent infiltration. […] One week after TAD patients were questioned by telephone about any signs and symptoms of subcutaneous tissue toxicity at the sites of TAD.
# [4] = Phase I pharmacokinetic clinical trial: TAD vs IVAD of cefazolin and metronidazole (TISF and serum); conditions: for AUC / Cmax: human, in vivo
# clinical = conditions: human, in vivo
# [5] = Safety of tumescent drug delivery: subcutaneous infiltration of tumescent acyclovir and gentamicin; type: in vivo, human
# [6] = 8 of 10 obese subjects and 3 of 10 normal controls; cited from earlier work
# [7] = test system: Staphyloccus aureus (MRSA) ATCC 33592; assay: Minimum Inhibitory Concentration (MIC) vs MRSA; conditions: Staphylococcus aureus
# [8] = IV Lidocaine; neuropathic pain; cited from earlier work
# [9] = 28 mg/kg of tumescent lidocaine
# platelet aggregation = conditions: cited from earlier work
# [10] = test system: Staphyloccus aureus (MRSA) ATCC 33592; assay: Minimum Bactericidal Concentration (MBC) vs MRSA; type: cell-based, Staphylococcus aureus
# Text: Determinations of MBC followed the method described in “Report on the Working Party on Antibiotic Sensitivity Testing of the British Society of Antimicrobial Chemotherapy: A Guide to Sensitivity Testing.”
# platelet function = assay: Bleeding time and bleeding area before and after tumescent lidocaine exposure; type: in vivo, human
# Description: The skin of the left and right thigh of a subject is cleaned and allowed to dry. […] Simultaneous 4 mm deep puncture wounds are made to the same area of the left and right thighs with disposable lancets. The puncture sites are blotted with filter paper every 30 seconds, until bleeding stops and the bleeding time for each thigh is recorded. The bleeding times of the left and right thigh are compared to determine if administration of TLAnti increases bleeding time. Normal bleeding time measured by the Duke method is 1 to 3 minutes.
# In a preliminary experiment, bleeding time and bleeding area were measured in a patient before and after tumescent lidocaine exposure. […] In contrast, there was a 40% increase in Average Bleeding Area (BA). Bleeding Area (BA) was a more sensitive and a more specific test for platelet function compared to Bleeding Time (BT). […] In other words, TAD may reduce the risk of both post-operative surgical site infection and post-operative thromboembolism.
# [11] = routine injection; cited from earlier work
# Herpes zoster = conditions: without repeat dosing
# [12] = 20 ml subcutaneous TI, 6 of 6 subjects, 6 days
# [13] = dilute drug after subcutaneous tumescent infiltration
# [14] = after vs before tumescent lidocaine exposure
# [15] = post-op tumescent lidocaine exposure, single tests T3, T4, Patient 1
molecule,measurement,setting,value
Cc1ncc([N+](=O)[O-])n1CCO [Metronidazole],concentration in subcutaneous fat,[1],600 to 1700 ng/mL
same,mean Tmax (time of Cmax in serum),[2],11
same,adverse local or systemic effects,"[3]; in vivo, sc",no adverse local or systemic effects
same,"AUC∞ in TISF after TAD, times greater than in serum after IVAD",[4]; 500 mg TAD vs 500 mg IVAD,8.1 times
same,AUC,"[4]; 500 mg, Table 15B, Abdomen, TISF, TAD, 413 mg/L, with cefazolin",1030 µg·h/mL
same,AUC,"[4]; 500 mg, Table 15B, Abdomen, serum, IVAD, with cefazolin",127 µg·h/mL
same,AUC,"[4]; 500 mg, Table 15B, Abdomen, serum, TAD, 413 mg/L, with cefazolin",81 µg·h/mL
same,Cmax,"[4]; 500 mg, Cmax in tumescent interstitial fluid, TAD solution containing 500 mg of metronidazole",370000 ng/mL
same,Cmax,"[4]; 500 mg, Cmax, Table 15B, Abdomen, TISF, TAD, 413 mg/L, with cefazolin",160000 ng/mL
same,Cmax,"[4]; 500 mg, Cmax, Table 15B, Abdomen, serum, IVAD, with cefazolin",14000 ng/mL
same,Cmax,"[4]; 500 mg, Cmax, Table 15B, Abdomen, serum, TAD, 413 mg/L, with cefazolin",4800 ng/mL
same,AUC,"[4]; 600 mg, Table 16B, Abdomen, serum, TAD, 172 mg/L, TAD dose 600 mg",81 µg·h/mL
same,Cmax,"[4]; 600 mg, Cmax, Table 16B, Abdomen, TISF, TAD, 172 mg/L, TAD dose 600 mg",160000 ng/mL
same,Cmax,"[4]; 600 mg, Cmax, Table 16B, Abdomen, serum, IVAD dose 600 mg",14000 ng/mL
same,Cmax,"[4]; 600 mg, Cmax, Table 16B, Abdomen, serum, TAD, 172 mg/L, TAD dose 600 mg",4800 ng/mL
same,AUC,"[4]; Table 16B, Abdomen, TISF, TAD + IVAD, 200 mg/L, TAD dose 400 mg, IVAD dose 200 mg",1130 µg·h/mL
same,AUC,"[4]; Table 16B, Abdomen, serum, TAD + IVAD, 200 mg/L, TAD dose 400 mg, IVAD dose 200 mg",117 µg·h/mL
same,Cmax,"[4]; Cmax, Table 16B, Abdomen, TISF, TAD + IVAD, 200 mg/L, TAD dose 400 mg, IVAD dose 200 mg",150000 ng/mL
same,Cmax,"[4]; Cmax, Table 16B, Abdomen, serum, TAD + IVAD, 200 mg/L, TAD dose 400 mg, IVAD dose 200 mg",5900 ng/mL
same,Tmax,clinical,10 to 12 h
Gentamicin,ecchymosis,[5]; [12],no ecchymosis
same,local tenderness upon palpation,[5]; [12],no local tenderness
same,stinging upon injection,"[5]; 20 ml subcutaneous TI, acyclovir 1 gm in 1130 ml, gentamicin 80 mg in 1110 ml tumescent lidocaine solution, 6 of 6 subjects",no stinging
same,clinically significant adverse effects,[5]; injected subcutaneously in a dilute tumescent solution,without any clinically significant adverse effects
CNC[C@H](O)c1ccc(O)c(O)c1 [epinephrine],adverse local or systemic effects,[3]; [13],no adverse local or systemic effects
CO[C@@]1(NC(=O)Cc2cccs2)C(=O)N2C(C(=O)O)=C(COC(N)=O)CS[C@@H]21 [cefoxitin],"subcutaneous bioavailability (AUC) of free drug after IVAD, times less than serum bioavailability",[6],10 times
same,"subcutaneous bioavailability by IVAD, times less than by TAD","[4]; 10×16, for a significant proportion of patients",approximately 160 times
Cc1nnc(SCC2=C(C(=O)O)N3C(=O)[C@@H](NC(=O)Cn4cnnn4)[C@H]3SC2)s1 [Cefazolin],adverse local or systemic effects,"[3]; in vivo, sc",no adverse local or systemic effects
same,Tmax,clinical,8 to 12 h
same,MIC,[7],125 to 250 µg/mL
CCN(CC)CC(=O)Nc1c(C)cccc1C [Lidocaine],mean serum lidocaine concentration at complete analgesia,[8],3.79 ± 1.00 µg/mL
same,duration of therapeutic serum lidocaine concentrations,[9],≥ 12 h
same,concentrations that consistently inhibit in-vitro platelet aggregation,"platelet aggregation; aggregation induced by ADP, epinephrine and collagen",≥ 0.5 mg/mL
same,systemic concentrations with no effect on platelet aggregation,platelet aggregation; safe systemic concentrations,≤ 6 micrograms/ml
same,MRSA survival at test concentration (MBC test),"[10]; Day 1, 1,000 mg/L, MRSA Inoculum 4.7 × 10^5 CFU/ml",+
same,MRSA survival at test concentration (MBC test),"[10]; Day 2, 1,000 mg/L, MRSA Inoculum 4.4 × 10^5 CFU/ml",+
same,MRSA survival at test concentration (MBC test),"[10]; Day 2, 5,000 mg/L, MRSA Inoculum 4.4 × 10^5 CFU/ml",+
same,MRSA survival at test concentration (MBC test),"[10]; Day 2, 10,000 mg/L, MRSA Inoculum 4.4 × 10^5 CFU/ml",0
same,MBC,"[10]; Staphylococcus aureus, 48 h, read-out: MBC end point",10000 µg/mL
same,Average Bleeding Area (BA),platelet function; after tumescent lidocaine exposure (Control BA = 541),Lidocaine BA = 759
same,Average Bleeding Time (BT),platelet function; after tumescent lidocaine exposure (Control BT = 6),Lidocaine BT = 5.75
same,change in Average Bleeding Time (BT),platelet function; [14],essentially no change
same,increase in Average Bleeding Area (BA),platelet function; [14],40%
same,Bleeding Area BA,platelet function; [15],791.81 and 726.03
same,Bleeding Time BT × 2,platelet function; [15],10 and 13
same,duration of routine local anesthesia,[11],~2 h
same,adverse local or systemic effects,[3]; [13],no adverse local or systemic effects
same,MIC,[7],~5000 µg/mL
same,MIC,[7]; read-out: MIC end point,5000 µg/mL
Nc1nc2c(ncn2COCCO)c(=O)[nH]1 [Acyclovir],clinically significant adverse effects,"[5]; in vivo, sc",without any clinically significant adverse effects
same,ecchymosis,"[5]; in vivo, sc",no ecchymosis
same,local tenderness upon palpation,"[5]; in vivo, sc",no local tenderness
same,duration of elimination of acute zoster pain,Herpes zoster,at least 12 hours
